One assay concerns the target Acetylcholinesterase (Homo sapiens, UniProt P22303). It counts as functional.
The target of assay [1] is T1, Alpha-2A adrenergic receptor (Homo sapiens, UniProt P08913).
T1 sequence (P08913 whole entry): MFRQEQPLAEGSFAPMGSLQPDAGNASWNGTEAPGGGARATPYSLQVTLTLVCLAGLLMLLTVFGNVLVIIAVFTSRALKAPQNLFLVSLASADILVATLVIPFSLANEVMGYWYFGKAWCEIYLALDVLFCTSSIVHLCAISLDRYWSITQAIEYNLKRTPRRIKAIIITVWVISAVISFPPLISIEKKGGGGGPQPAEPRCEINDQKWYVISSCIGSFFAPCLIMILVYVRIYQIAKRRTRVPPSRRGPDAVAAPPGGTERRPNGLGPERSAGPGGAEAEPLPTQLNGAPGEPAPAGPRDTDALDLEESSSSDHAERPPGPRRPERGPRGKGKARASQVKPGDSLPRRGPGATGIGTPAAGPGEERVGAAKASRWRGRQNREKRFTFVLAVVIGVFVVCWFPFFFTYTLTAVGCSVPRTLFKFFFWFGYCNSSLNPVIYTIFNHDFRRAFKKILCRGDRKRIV

Assay [2] addresses T2, Muscarinic acetylcholine receptor M2 (Homo sapiens, UniProt P08172).
T2 sequence (P08172 whole entry): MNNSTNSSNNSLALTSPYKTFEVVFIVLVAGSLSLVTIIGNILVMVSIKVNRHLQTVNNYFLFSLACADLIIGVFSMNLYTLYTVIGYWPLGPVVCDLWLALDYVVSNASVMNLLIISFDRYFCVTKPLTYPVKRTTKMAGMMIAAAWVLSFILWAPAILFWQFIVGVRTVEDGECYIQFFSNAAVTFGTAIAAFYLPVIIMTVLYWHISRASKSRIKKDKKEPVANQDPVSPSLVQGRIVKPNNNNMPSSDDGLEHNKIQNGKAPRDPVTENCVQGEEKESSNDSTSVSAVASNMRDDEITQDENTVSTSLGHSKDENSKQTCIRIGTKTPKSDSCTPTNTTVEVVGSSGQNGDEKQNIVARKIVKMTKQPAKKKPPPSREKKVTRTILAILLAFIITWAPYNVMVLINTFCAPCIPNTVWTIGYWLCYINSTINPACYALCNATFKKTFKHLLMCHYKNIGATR

The target in a further assay is Prothrombin (Homo sapiens, UniProt P00734). It counts as functional.
The target in a further assay is Histamine H3 receptor (Homo sapiens, UniProt Q9Y5N1).
In assay [3] the target is T3, 5-hydroxytryptamine receptor 1A (Homo sapiens, UniProt P08908).
T3 sequence (P08908 whole entry): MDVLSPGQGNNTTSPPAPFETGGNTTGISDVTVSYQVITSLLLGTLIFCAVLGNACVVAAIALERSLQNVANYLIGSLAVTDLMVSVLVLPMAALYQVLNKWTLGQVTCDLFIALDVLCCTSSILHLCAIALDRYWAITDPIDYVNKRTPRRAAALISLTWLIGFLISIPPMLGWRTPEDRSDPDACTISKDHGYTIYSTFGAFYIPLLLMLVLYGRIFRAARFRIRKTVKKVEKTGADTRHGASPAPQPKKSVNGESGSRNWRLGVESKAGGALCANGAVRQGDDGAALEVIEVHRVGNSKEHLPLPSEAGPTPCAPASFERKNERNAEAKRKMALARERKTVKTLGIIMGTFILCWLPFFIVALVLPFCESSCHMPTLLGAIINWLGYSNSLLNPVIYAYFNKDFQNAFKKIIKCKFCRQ

Assay [4] has as its target 5-hydroxytryptamine receptor 2B (Homo sapiens, UniProt P41595). It counts as functional, cell-based.
Assay [5] concerns the target Voltage-gated inwardly rectifying potassium channel KCNH2 (Homo sapiens, UniProt Q12809). It counts as functional.
Assay [6] deals with T4, Amine oxidase [flavin-containing] A (Homo sapiens, UniProt P21397).
T4 sequence (P21397 whole entry): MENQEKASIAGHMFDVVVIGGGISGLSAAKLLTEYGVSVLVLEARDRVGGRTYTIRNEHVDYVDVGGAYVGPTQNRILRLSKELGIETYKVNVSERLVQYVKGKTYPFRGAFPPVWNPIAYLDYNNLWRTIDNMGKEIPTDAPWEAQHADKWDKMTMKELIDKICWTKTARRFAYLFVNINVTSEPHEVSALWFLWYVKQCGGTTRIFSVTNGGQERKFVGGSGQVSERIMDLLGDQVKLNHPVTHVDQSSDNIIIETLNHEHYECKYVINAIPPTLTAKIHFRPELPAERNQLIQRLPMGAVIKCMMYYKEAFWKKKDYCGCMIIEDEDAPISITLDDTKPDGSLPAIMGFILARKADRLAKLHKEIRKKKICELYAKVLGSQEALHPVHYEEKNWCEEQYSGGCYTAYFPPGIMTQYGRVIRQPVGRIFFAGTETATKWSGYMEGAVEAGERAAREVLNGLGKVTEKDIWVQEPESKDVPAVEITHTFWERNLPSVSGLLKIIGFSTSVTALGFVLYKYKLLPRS
Type of assay: functional.

For assay [7], the target named is cGMP-inhibited 3',5'-cyclic phosphodiesterase 3A (Homo sapiens, UniProt Q14432). It counts as functional.
Sequence of cGMP-inhibited 3',5'-cyclic phosphodiesterase 3A (Q14432 whole entry): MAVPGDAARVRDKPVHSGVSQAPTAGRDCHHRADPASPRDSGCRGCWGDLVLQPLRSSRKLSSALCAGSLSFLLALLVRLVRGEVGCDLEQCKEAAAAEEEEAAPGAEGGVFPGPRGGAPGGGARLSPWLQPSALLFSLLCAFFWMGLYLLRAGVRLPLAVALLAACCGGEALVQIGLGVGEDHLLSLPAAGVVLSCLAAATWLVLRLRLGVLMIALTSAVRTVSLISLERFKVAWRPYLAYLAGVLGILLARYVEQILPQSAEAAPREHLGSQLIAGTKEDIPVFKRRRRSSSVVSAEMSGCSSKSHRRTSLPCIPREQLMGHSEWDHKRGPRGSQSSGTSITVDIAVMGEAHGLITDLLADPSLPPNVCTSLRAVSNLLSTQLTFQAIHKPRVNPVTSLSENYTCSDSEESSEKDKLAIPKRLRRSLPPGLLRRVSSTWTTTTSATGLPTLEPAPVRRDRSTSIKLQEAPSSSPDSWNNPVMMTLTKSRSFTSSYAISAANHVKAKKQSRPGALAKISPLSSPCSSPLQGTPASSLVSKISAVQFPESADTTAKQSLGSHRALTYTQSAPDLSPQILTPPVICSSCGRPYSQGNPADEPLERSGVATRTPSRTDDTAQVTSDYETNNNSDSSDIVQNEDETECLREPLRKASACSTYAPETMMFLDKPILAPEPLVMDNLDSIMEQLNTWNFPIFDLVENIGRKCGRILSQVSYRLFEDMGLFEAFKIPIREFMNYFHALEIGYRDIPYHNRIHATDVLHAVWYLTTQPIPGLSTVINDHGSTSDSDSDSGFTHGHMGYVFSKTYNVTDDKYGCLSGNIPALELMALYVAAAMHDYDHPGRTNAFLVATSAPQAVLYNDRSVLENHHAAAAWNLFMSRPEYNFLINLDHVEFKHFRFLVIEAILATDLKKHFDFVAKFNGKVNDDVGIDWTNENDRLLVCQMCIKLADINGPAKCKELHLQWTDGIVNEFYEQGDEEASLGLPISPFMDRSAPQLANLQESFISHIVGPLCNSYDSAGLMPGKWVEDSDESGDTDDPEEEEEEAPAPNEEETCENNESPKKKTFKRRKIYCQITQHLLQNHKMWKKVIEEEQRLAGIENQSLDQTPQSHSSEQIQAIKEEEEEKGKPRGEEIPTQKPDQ
In assay [8] the target is 3',5'-cyclic-AMP phosphodiesterase 4A (Homo sapiens, UniProt P27815). Type of assay: functional.
Sequence of 3',5'-cyclic-AMP phosphodiesterase 4A (P27815 whole entry): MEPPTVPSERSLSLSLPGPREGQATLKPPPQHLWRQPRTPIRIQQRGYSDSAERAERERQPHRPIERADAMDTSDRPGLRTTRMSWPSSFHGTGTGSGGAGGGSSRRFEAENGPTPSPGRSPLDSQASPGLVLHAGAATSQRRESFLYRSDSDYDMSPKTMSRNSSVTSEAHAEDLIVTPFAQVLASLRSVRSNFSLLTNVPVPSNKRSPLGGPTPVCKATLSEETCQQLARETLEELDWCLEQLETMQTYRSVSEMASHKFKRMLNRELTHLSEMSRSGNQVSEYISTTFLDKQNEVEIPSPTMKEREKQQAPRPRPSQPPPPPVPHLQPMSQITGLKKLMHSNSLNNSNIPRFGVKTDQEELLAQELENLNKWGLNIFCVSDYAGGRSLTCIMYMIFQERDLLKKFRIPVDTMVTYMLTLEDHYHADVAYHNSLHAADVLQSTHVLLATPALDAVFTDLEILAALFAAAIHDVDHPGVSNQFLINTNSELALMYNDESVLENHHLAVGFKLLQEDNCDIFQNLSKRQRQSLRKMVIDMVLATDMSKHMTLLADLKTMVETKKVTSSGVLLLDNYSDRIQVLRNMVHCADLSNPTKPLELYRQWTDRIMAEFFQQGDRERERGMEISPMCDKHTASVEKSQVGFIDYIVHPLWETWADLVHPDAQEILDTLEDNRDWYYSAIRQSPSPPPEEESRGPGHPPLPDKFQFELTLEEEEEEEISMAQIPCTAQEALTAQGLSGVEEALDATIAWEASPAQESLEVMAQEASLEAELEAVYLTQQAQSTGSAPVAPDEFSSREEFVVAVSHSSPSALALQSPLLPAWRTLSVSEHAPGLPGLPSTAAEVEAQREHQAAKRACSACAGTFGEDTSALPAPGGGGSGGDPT
Assay [9] addresses Prostaglandin G/H synthase 1 (Homo sapiens, UniProt P23219). It counts as functional.
In assay [10] the target is Sodium-dependent dopamine transporter (Homo sapiens, UniProt Q01959).
Sequence of Sodium-dependent dopamine transporter (Q01959 whole entry): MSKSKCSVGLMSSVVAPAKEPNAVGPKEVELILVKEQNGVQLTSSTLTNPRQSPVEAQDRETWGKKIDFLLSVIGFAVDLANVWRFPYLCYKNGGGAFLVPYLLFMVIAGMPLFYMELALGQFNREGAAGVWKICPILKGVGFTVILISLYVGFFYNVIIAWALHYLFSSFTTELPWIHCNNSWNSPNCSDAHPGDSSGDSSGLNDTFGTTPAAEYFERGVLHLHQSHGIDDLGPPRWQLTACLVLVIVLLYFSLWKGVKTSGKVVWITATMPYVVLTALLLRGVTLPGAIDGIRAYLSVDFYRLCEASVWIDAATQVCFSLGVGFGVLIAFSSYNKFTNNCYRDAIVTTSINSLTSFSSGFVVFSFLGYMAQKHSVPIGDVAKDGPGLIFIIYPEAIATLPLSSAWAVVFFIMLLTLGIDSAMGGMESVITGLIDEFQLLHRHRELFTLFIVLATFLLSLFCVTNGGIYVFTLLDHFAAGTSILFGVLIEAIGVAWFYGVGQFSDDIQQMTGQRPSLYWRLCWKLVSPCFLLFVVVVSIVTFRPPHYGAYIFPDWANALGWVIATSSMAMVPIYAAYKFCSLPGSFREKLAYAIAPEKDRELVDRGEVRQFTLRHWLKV
In assay [11] the target is T5, Thromboxane A2 receptor (Homo sapiens, UniProt P21731).
T5 sequence (P21731 whole entry): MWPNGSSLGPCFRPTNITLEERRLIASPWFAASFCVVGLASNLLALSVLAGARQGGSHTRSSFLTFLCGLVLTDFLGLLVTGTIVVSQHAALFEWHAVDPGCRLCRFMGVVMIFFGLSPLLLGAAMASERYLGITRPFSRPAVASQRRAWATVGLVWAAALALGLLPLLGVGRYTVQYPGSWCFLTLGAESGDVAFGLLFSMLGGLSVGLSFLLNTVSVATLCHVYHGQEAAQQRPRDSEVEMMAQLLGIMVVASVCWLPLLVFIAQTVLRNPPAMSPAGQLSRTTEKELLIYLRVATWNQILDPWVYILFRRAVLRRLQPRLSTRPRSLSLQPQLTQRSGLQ
It counts as functional, cell-based.

Assay [12] concerns the target T5, Thromboxane A2 receptor. Type of assay: functional, cell-based. The source holds these as a separate data set.

AC50 data for eight compounds are collected here from ChEMBL document CHEMBL5291721, “A preclinical secondary pharmacology resource illuminates target-adverse drug reaction associations of marketed drugs” (Nat Commun, 2023).
Note: assay procedure not described here.

Sequence of Voltage-gated inwardly rectifying potassium channel KCNH2 (Q12809 whole entry): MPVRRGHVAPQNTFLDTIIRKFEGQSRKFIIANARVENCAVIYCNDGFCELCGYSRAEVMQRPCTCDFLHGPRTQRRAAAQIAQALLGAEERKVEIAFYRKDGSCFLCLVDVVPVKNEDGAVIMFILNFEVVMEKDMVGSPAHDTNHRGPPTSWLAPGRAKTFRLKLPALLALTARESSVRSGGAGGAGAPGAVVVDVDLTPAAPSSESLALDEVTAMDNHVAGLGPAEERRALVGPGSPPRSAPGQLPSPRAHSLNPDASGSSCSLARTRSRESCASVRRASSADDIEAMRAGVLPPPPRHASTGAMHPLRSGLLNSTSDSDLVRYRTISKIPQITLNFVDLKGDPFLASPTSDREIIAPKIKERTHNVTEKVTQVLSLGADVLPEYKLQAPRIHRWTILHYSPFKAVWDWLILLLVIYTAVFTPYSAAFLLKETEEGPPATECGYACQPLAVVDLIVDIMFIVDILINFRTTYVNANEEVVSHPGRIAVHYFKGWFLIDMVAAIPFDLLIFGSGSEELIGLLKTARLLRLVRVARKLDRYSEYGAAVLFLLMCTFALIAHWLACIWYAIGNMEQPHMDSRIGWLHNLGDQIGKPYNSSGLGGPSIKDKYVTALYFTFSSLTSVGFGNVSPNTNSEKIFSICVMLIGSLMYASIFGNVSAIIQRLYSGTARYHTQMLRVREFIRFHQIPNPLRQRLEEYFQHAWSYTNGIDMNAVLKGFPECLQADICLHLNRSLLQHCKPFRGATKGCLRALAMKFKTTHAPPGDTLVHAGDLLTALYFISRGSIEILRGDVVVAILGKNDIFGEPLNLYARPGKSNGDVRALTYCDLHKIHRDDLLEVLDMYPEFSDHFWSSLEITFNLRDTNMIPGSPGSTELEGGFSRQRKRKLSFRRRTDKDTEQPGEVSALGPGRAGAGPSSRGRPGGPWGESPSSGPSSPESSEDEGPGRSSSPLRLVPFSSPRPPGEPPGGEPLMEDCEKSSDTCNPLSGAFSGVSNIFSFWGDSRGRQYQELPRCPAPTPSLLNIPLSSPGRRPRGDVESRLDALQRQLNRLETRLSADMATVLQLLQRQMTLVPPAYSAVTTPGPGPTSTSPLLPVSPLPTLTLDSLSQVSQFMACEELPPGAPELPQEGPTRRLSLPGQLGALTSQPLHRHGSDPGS
Sequence of 5-hydroxytryptamine receptor 2B (P41595 whole entry): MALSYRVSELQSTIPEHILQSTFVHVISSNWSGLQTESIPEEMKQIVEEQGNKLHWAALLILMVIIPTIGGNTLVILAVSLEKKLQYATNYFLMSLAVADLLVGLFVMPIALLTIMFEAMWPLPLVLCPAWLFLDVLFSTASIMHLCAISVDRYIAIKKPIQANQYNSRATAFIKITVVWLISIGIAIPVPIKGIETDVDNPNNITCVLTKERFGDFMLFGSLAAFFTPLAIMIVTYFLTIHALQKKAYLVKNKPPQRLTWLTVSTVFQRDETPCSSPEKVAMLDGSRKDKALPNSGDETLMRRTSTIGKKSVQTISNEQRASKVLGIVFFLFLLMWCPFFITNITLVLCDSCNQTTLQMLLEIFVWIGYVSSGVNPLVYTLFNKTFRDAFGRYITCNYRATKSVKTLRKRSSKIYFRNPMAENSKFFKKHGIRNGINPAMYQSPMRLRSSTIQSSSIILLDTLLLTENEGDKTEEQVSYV
Sequence of Acetylcholinesterase (P22303 whole entry): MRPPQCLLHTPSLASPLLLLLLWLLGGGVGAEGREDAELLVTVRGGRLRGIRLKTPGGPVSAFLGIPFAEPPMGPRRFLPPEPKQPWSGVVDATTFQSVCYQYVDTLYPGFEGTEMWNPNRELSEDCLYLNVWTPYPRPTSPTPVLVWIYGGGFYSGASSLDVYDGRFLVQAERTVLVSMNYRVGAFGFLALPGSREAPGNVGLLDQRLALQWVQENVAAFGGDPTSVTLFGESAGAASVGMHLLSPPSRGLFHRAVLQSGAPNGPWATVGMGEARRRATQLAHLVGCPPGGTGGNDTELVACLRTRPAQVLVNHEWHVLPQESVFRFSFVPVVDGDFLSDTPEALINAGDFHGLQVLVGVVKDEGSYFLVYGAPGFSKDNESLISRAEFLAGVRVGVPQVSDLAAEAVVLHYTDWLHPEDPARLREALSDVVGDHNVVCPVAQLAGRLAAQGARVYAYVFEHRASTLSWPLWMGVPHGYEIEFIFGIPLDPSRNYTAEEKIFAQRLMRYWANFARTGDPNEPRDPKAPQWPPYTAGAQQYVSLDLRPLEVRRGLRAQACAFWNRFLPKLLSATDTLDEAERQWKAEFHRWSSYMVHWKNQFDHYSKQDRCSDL

A word on the AC50: it is the concentration at which the activity in the assay is half-maximal. Regarding `C=C1CC[C@H](O)C/C1=C/C=C1\CCC[C@]2(C)[C@@H]([C@H](C)CCCC(C)C)CC[C@@H]12` [CHOLECALCIFEROL], the half-maximal activity concentration (AC50) (on Acetylcholinesterase; in [1]; in assay [2]; at Prothrombin; on Histamine H3 receptor; in [3]) was greater than 30 µM throughout. For the same compound, the half-maximal activity concentration (AC50) was greater than 30 µM in [4]; greater than 30 µM in [5]; greater than 30 µM in assay [6]; greater than 3 µM in assay [7]; greater than 30 µM in assay [8]; 12.3 µM in assay [9]. For the same compound, the AC50 in assay [10] was greater than 30 µM; on Thromboxane A2 receptor [11], greater than 30 µM; on Thromboxane A2 receptor [12] it was 22.4 µM.

Take `Cc1ncc2c(c1O)COC2c1ccc(Cl)cc1` (stereo not given) [CICLETANINE]: the AC50 (at Acetylcholinesterase; in assay [1]; in assay [2]; at Prothrombin; at Histamine H3 receptor; in assay [3]) was greater than 30 µM throughout. Besides, the AC50 in [4], in assay [5], in [6], in assay [7], in [8] and in assay [9] was greater than 30 µM throughout. The AC50 (in assay [10]; at Thromboxane A2 receptor [11]; at Thromboxane A2 receptor [12]) was greater than 30 µM each time.

For `N#Cc1ccc(Oc2ccc3c(c2)COB3O)cc1` [CRISABOROLE], the AC50 (on Acetylcholinesterase; in assay [1]; in [2]; on Prothrombin; at Histamine H3 receptor; in [3]) was greater than 30 µM throughout. Also, the AC50 was greater than 30 µM in assay [4]; greater than 30 µM in [5]; greater than 30 µM in [6]; 14.7 µM in assay [7]; 0.337 µM in assay [8]; greater than 30 µM in assay [9]. The AC50 (in assay [10]; on Thromboxane A2 receptor [11]; at Thromboxane A2 receptor [12]) was greater than 30 µM throughout.

`CC(=O)O[C@]1(C(C)=O)CC[C@H]2[C@@H]3C=C(Cl)C4=CC(=O)[C@@H]5C[C@@H]5[C@]4(C)[C@H]3CC[C@@]21C` [CYPROTERONE ACETATE]: the concentration at half-maximal activity (AC50) at Acetylcholinesterase was greater than 30 µM; in assay [1], greater than 30 µM; in [2], 9.17 µM; at Prothrombin, greater than 30 µM; at Histamine H3 receptor, greater than 30 µM; in [3], greater than 30 µM. The concentration at half-maximal activity (AC50) in [4], in assay [5], in [6], in assay [7], in assay [8] and in [9] was greater than 30 µM throughout. Moreover, the results for the concentration at half-maximal activity (AC50) (in assay [10]; at Thromboxane A2 receptor [11]; on Thromboxane A2 receptor [12]) were greater than 30 µM, greater than 30 µM and greater than 3 µM, respectively.

`CC(=O)O[C@H]1Cc2ccccc2N(C(N)=O)c2ccccc21` [ESLICARBAZEPINE ACETATE]: the AC50 (on Acetylcholinesterase; in [1]; in assay [2]; on Prothrombin; at Histamine H3 receptor; in assay [3]) was greater than 30 µM in each case. Further, the concentration at half-maximal activity (AC50) in assay [4], in assay [5], in assay [6], in assay [7], in assay [8] and in [9] was greater than 30 µM each time. Besides, the AC50 (in assay [10]; on Thromboxane A2 receptor [11]; on Thromboxane A2 receptor [12]) was greater than 30 µM throughout.

For the compound `Cc1ccc(S(=O)(=O)NC(=O)NC2CCCCC2)cc1` [GLYCYCLAMIDE], the AC50 (on Acetylcholinesterase; in assay [1]; in assay [2]; at Prothrombin; at Histamine H3 receptor; in [3]) was greater than 30 µM throughout. Also, the concentration at half-maximal activity (AC50) in assay [4], in assay [5], in assay [6], in assay [7], in assay [8] and in [9] was greater than 30 µM each time. In addition, the half-maximal activity concentration (AC50) (in assay [10]; on Thromboxane A2 receptor [11]; on Thromboxane A2 receptor [12]) was greater than 30 µM each time.

On to `CN1CCCN(C(c2ccccc2)c2ccc(Cl)cc2)CC1` (stereo not given) [HOMOCHLORCYCLIZINE], for which the half-maximal activity concentration (AC50) at Acetylcholinesterase was greater than 30 µM; in assay [1], 1.35 µM; in [2], 0.149 µM; at Prothrombin, greater than 30 µM; on Histamine H3 receptor, greater than 30 µM; in assay [3], 13.7 µM. Moreover, the concentration at half-maximal activity (AC50) in assay [4] was greater than 30 µM; in [5], 0.81 µM; in assay [6] it was greater than 30 µM; in [7], greater than 30 µM; in assay [8], greater than 30 µM; in assay [9] it was greater than 30 µM. Also, the AC50 is 0.229 µM in assay [10], 11.8 µM at Thromboxane A2 receptor [11] and greater than 3 µM at Thromboxane A2 receptor [12].

Turning to `CC(=O)OCC(=O)[C@@]1(O)CC[C@H]2[C@@H]3CCC4=CC(=O)CC[C@]4(C)[C@H]3[C@@H](O)C[C@@]21C` [HYDROCORTISONE ACETATE], the AC50 (on Acetylcholinesterase; in assay [1]; in assay [2]; at Prothrombin; on Histamine H3 receptor; in assay [3]) was greater than 30 µM throughout. For the same compound, the AC50 in assay [4], in [5], in assay [6], in [7], in [8] and in assay [9] was greater than 30 µM throughout. The concentration at half-maximal activity (AC50) (in [10]; at Thromboxane A2 receptor [11]; at Thromboxane A2 receptor [12]) was greater than 30 µM each time.
